Each compound was assayed on Tetrahymena pyriformis (assay: 48 h IGC50 (-log10 mol/L); higher = more toxic).

| Structure (SMILES) | 48 h IGC50 (-log10 mol/L) |
| --- | --- |
| C/C=C/C(=O)OC | 2.08 |
| CC(C)(N)CO | 1.07 |
| COC(=O)CC#N | 1.66 |
| CC(C)CC(=O)OCCc1ccccc1 | 4.1 |
| CCC[C@H](O)c1ccccc1 | 2.91 |
| CCN(CC)CCO | 1.5 |
| S=C=Nc1ccc2c(c1)CCC2 | 5.48 |
| NC(=S)c1ccccc1 | 3.09 |
| NCc1ccc(Cl)cc1 | 3.16 |
| CCCCCCCCCCCN | 5.33 |
| CC(C)c1ccccc1N | 3.12 |
| CCCCCCCCC(O)CO (centres undefined) | 3.76 |
| CCCCCN=C=S | 4.71 |
| CCOC(=O)CCC(=O)CCC(=O)OCC | 2.36 |
| O=C(O)CCCCCl | 2.71 |
| Oc1cc(Cl)ccc1Cl | 4.13 |
| CC(=O)c1cccs1 | 2.41 |
| C#CC(C)(O)CCC (centres undefined) | 2.1 |
| O=Cc1cccc(Cl)c1 | 3.41 |
| NC(CO)CO | 1.32 |
| O=C(O)c1cc(Cl)ccc1Cl | 2.54 |
| CC(=O)OC(C)C | 1.41 |
| CCCCCCC#CC(=O)O | 3.71 |
| Cc1cnccn1 | 1.91 |

| Structure (SMILES) | 48 h IGC50 (-log10 mol/L) |
| --- | --- |
| CCCNC(N)=S | 2.31 |
| Cc1cc(O)cc(C)c1Br | 4.27 |
| N#CC(=O)c1ccccc1 | 3.31 |
| CC(O)CBr (centres undefined) | 1.81 |
| C#CC(O)C(C)CCC (centres undefined) | 3.74 |
| CCCCCN | 2.52 |
| C#CC(C)(C)N | 2.09 |
| Cc1ccc(O)cc1C | 3.12 |
| CCC(C)(C)O | 1.83 |
| OCc1cccc(Cl)c1 | 3.15 |
| S=C=NCc1cccc2ccccc12 | 6.06 |
| CCCCCCCCCCC#N | 4.65 |
| O=[N+]([O-])c1cc(F)ccc1O | 4.38 |
| C=C(C)C(=O)OCC | 2.07 |
| CCCCCOC(=O)CC | 2.96 |
| O=C(CBr)Nc1cc([N+](=O)[O-])ccc1O | 3.87 |
| NC(=O)c1cc(Cl)ccc1[N+](=O)[O-] | 2.68 |
| O=C1CCO1 | 2.88 |
| OCc1ccccc1Br | 3.1 |
| OCCc1ccc(O)cc1 | 2.17 |
| CC(C)COC(=O)C(C)C | 2.41 |
| C=C(C)CCO | 1.82 |
| CCCNC(C)=O | 1.5 |
| CCCOC(=O)CC | 2.19 |

| Structure (SMILES) | 48 h IGC50 (-log10 mol/L) |
| --- | --- |
| OCc1ccc(F)cc1 | 2.38 |
| O=C(Cc1ccccc1)c1ccc(O)cc1 | 4.07 |
| N#CCCCCl | 2.07 |
| O=C(O)c1ccccc1Br | 2.53 |
| CCOS(=O)(=O)OCC | 2.3 |
| COC(=O)c1ccc(Br)cc1 | 3.6 |
| O=Cc1ccc(O)c(O)c1 | 3.11 |
| CC(C)C(=O)O | 2.67 |
| Oc1c(F)c(F)c(F)c(F)c1F | 4.63 |
| NC(=O)c1ccccc1[N+](=O)[O-] | 2.28 |
| OCCCCCl | 2.24 |
| C#CC(=O)OC | 4.77 |
| Oc1ccc(O)c(-c2ccccc2)c1 | 5.01 |
| CCN=C=S | 4.63 |
| Cc1cc(C)c(O)c(C(C)(C)C)c1 | 4.16 |
| O=C(c1ccccc1)c1ccc(O)c(O)c1O | 3.88 |
| CC(=O)OC/C=C/c1ccccc1 | 3.59 |
| CCOC(=O)CCl | 4.06 |
| CS(C)(=O)=O | 0.8 |
| COC(=O)CCCCCCCCCCCC(=O)OC | 4.65 |
| Cc1c(O)c(Br)c(Br)c(Br)c1Br | 5.57 |
| CCC(=O)N(C)C | 1.43 |
| CCOC(=O)c1ccc(Cl)cc1 | 3.75 |
| Cc1cc(O)c(Cl)cc1C | 3.69 |

| Structure (SMILES) | 48 h IGC50 (-log10 mol/L) |
| --- | --- |
| CCC(=O)CC(=O)CC | 2.62 |
| CCc1cccc(N)c1 | 2.97 |
| CCCCCCCCC(O)CCC (centres undefined) | 4.65 |
| C=CS(=O)(=O)c1ccccc1 | 4.28 |
| CCCCCCCCCCN | 5.06 |
| COc1cccc2ccccc12 | 3.8 |
| O=[N+]([O-])c1cc(Cl)ccc1Cl | 4.13 |
| CC=CC(=O)OC(C)C | 2.22 |
| Oc1ccc(O)c(Br)c1 | 4.68 |
| N#Cc1ccccc1C#N | 2.66 |
| Nc1cc([N+](=O)[O-])ccc1Cl | 3.6 |
| O=C(O)c1c(Cl)cccc1Cl | 2.33 |
| N#CCc1ccc(Br)cc1 | 3.6 |
| CCOC(=O)C(Br)C(C)Br (centres undefined) | 4.44 |
| Nc1cccc([N+](=O)[O-])c1 | 3.03 |
| CCCCCCC(=O)OC | 3.1 |
| CC(=O)NN | 1.62 |
| CCCCCc1cccs1 | 4.2 |
| Cc1ccc(C)c(O)c1 | 3.14 |
| O=[N+]([O-])c1ccc(Cl)cc1Cl | 3.99 |
| CC1CCCCC1=O (centres undefined) | 2.19 |
| COc1ccc(C=O)c(Cl)c1O | 3.2 |
| C/C=C(\C)C=O | 2.86 |
| CC(O)CCC(C)O (centres undefined) | 1.04 |

| Structure (SMILES) | 48 h IGC50 (-log10 mol/L) |
| --- | --- |
| O=C(c1ccccc1)c1ccc(O)cc1O | 4.37 |
| c1ccc(Cc2ccncc2)cc1 | 3.63 |
| Cc1cccc(C)c1[N+](=O)[O-] | 3.3 |
| CCOC(=O)C(Br)CC (centres undefined) | 3.76 |
| Clc1cccc2ccccc12 | 3.81 |
| CC/C=C/CBr | 3.77 |
| CCC(CC)COC(C)=O | 2.88 |
| CC(CCO)c1ccccc1 (centres undefined) | 3.01 |
| CC#CCCO | 1.82 |
| N#Cc1cc([N+](=O)[O-])c(Cl)c([N+](=O)[O-])c1 | 5.66 |
| NC(=O)CBr | 4.52 |
| CCCNCCO | 1.32 |
| O=[N+]([O-])c1ccc(F)c(Cl)c1 | 3.8 |
| COC(=O)CC(=O)OC | 1.71 |
| Cc1cccc(CO)c1 | 2.76 |
| C=CSc1ccccc1 | 3.42 |
| COC(=O)c1ccc(C#N)cc1 | 2.95 |
| N#CCCCCCCCl | 3.29 |
| CC(C)C=CC=O | 3.82 |
| CCCC#CC(=O)OC | 3.76 |
| CCCCCCCC(=O)c1ccccc1 | 4.89 |
| Cc1cc(C)c(O)c(C)c1 | 3.42 |
| Cc1ccc(Cl)c(C=O)c1F | 3.74 |
| SC1CCCCC1 | 3 |

| Structure (SMILES) | 48 h IGC50 (-log10 mol/L) |
| --- | --- |
| C=CC(C)O (centres undefined) | 1.95 |
| CC(C)CCC#N | 2.21 |
| CCCCCCC(=O)CCCCCC | 4.52 |
| CCCCCCC#CCO | 3.65 |
| CCCNC | 2.19 |
| Cc1ccc([N+](=O)[O-])cc1O | 3.66 |
| O=Cc1ccc(Cl)c([N+](=O)[O-])c1 | 4.19 |
| CCOC(=O)C(NC(C)=O)C(=O)OCC | 1.8 |
| CCc1ccc(CO)cc1 | 3.07 |
| c1cnccn1 | 1.18 |
| Cc1cccc(C#N)c1 | 2.75 |
| N#Cc1c(F)c(F)c(C#N)c(F)c1F | 5.55 |
| O=[N+]([O-])c1cc(F)cc(I)c1 | 4.09 |
| CCOC(=O)C(Br)C(C)C (centres undefined) | 3.02 |
| CC(N)c1ccccc1 (centres undefined) | 2.82 |
| C=CCOC(C)=O | 3.48 |
| CCOC(=O)Cc1cccs1 | 3.27 |
| Cc1cccc(C)c1N=C=S | 4.5 |
| COc1ccc(C(=O)c2ccccc2)c(O)c1 | 4.42 |
